Test results: paper PMC10743653, “Combined In Silico and In Vitro Analyses to Assess the Anticancer Potential of Thiazolidinedione–Thiosemicarbazone Hybrid Molecules” (International Journal of Molecular Sciences, 2023)

Key:
[1] = test system: HT29 cells; assay: MTT assay, HT29; type: cell-based, human; details: for IC50: Homo sapiens, HT-29, HT29, MTT, 24 h treatment, mean ± SD; for SI (selectivity index): IC50 CCD 841 CoTr divided by IC50 HT29
Experimental: (§1) The effects of TZD–TSCs 2–5 on the cellular viability of a panel of cell lines were investigated through an 3-(4,5-dimethylthiazol-2-yl)-2,5-diphenyl-2H-tetrazolium bromide (MTT) assay, following a 24 h treatment with the compounds. The panel consisted of three solid tumor cells: T98G (glioblastoma multiforme), HepG2 (hepatocellular carcinoma, epithelial), and HT29 (colon adenocarcinoma, epithelial), as well as noncancerous cells CCD 841 CoTr (normal colon, epithelial).
(§2) Primary single dose screenings of TZD–TSCs 2–5 were performed at a concentration of 200 μg/mL, and those that elicited a greater than 80% inhibition of cell proliferation were analyzed at several concentrations, to find their half-maximal inhibitory concentration (IC50). The IC50 values, reported as the mean ± SD in Table 2, indicate the concentration of the tested compound that inhibits the growth/viability of the cancer cell population by 50%. In this specific case of an MTT assay, which measures the activity of mitochondrial dehydrogenases (as an indicator of cell viability), the IC50 values stand for the concentration that inhibits the metabolic activity of cells by 50%.
(§3) Human colon adenocarcinoma cells, HT29 (ATCC no. HTB-38), derived from a grade I tumor, were cultured in roswell park memorial institute Medium (RPMI) 1640 medium, supplemented with 10% fetal calf serum (FCS) (GibcoTM, Paisley, UK) and antibiotics (100 U/mL penicillin and 100 μg/mL streptomycin) (Sigma, St. Louis, MO), at 37 °C in a humidified atmosphere with 5% CO2. Human normal colon epithelial cells, CCD 841 CoTr (ATCC no. CRL-1807), were cultured in RPMI 1640 + dulbecco’s modified eagle medium (DMEM) (1:1) medium (Sigma, St. Louis, MO), supplemented with 10% FCS and antibiotics, at 34 °C in a 5% CO2/95% air atmosphere. Human glioblastoma T98G cells were cultured in Dulbecco’s Modified Eagle’s Medium (DMEM) (Sigma Aldrich, St. Louis, MO, USA), supplemented with 10% fetal bovine serum (FBS), penicillin (100 U/mL), and streptomycin (100 μg/mL). Human hepatocellular carcinoma cells, HepG2, were maintained in Eagle’s Minimum Essential Medium, supplemented with 10% FBS, penicillin (100 U/mL), and streptomycin (100 μg/mL).
(§4) After 24 h of incubation of the cells with the tested compounds in 100 μL of culture medium, MTT solution (5 mg/mL, 25 μL/well) was added and incubated for an additional 3 h. The purple crystals of formazan which formed in the medium were solubilized overnight in 10% sodium dodecyl sulphate (SDS) in a 0.01 M HCl mixture. The product was quantified spectrophotometrically by measuring its absorbance at 570 nm using an Emax Microplate Reader (Molecular Devices Corporation, Menlo Park, CA, USA).

[2] = test system: HepG2 cells; assay: MTT assay, HepG2; type: cell-based, human; details: for IC50: Homo sapiens, HepG2, MTT, 24 h treatment, mean ± SD; for SI (selectivity index): IC50 CCD 841 CoTr divided by IC50 HepG2
Experimental: as §1, §2, §3, §4

[3] = test system: T98G cells; assay: MTT assay, T98G; type: cell-based, human; details: for IC50: Homo sapiens, T98G, MTT, 24 h treatment, mean ± SD; for SI (selectivity index): IC50 CCD 841 CoTr divided by IC50 T98G
Experimental: as §1, §2, §3, §4

[4] = test system: HT29 cells; assay: Nitric oxide measurement (Griess), HT29; type: cell-based, human
Experimental: (§5) Nitrate, i.e., a stable end product of NO, was measured in culture supernatants with a spectrophotometric method based on the Griess reaction. Culture supernatants were collected from the cell cultures treated with specific concentrations of the tested compounds (25, 75, 150, and 200 μg/mL, respectively). Briefly, 100 μL of the culture supernatant was placed in 96-well flat-bottomed plates in triplicate and incubated with 100 μL of Griess reagent (1% sulfanilamide/0.1% N-(1-naphthyl)ethylenediamine dihydrochloride) in 3% H3PO4 at room temperature for 10 min. The optical density was measured at 550 nm using a microplate reader. A standard curve was prepared using 0.5–25 μM sodium nitrite (NaNO2) for calibration.

[5] = test system: CCD 841 CoTr cells; assay: MTT assay, normal colon epithelial cells; type: cell-based; details: Homo sapiens, CCD 841 CoTr (noncancerous), 24 h treatment, mean ± SD
Experimental: as §1, §2, §3, §4

[6] = DPPH free radical scavenging test
Description: (§6) Antioxidant activity is a complex procedure, usually happening through several multiple or predominant chemical mechanisms (i.e., hydrogen atom transfer (HAT), single electron transfer (SET), and the ability to chelate transition metals), and it is influenced by many factors, which cannot be fully described with one single method. Therefore, it is important to perform more than one type of measurement to take into account the various mechanisms of antioxidant action. In this study, to assess the antioxidant activity of TZD–TSCs 2–5, two complementary tests were used: a DPPH (2,2-diphenyl-1-picrylhydrazyl) free radical-scavenging ability assay, that detects the HAT and SET mechanisms, and a FRAP (ferric reducing antioxidant power) assay, that prefers the […] mechanism. The antioxidant powers of 2–5 were compared to standard antioxidants, such as the water-soluble synthetic analogue of vitamin E (Trolox) and ascorbic acid (vitamin C).
The free radical scavenging activity of […] was measured by the DPPH assay. Briefly, 100 μl of DPPH solution (0.2 mg/mL in ethanol) was added to 100 μL of the tested compound concentrations (25, 75, 150, and 200 μg/mL, respectively). Trolox, at increasing concentrations (1–50 μg/mL), was used as a standard. After 20 min of incubation at room temperature, the absorbances of the solutions were measured at 515 nm. The lower the absorbance, the higher the free radical scavenging activity of the compound. The activity of each compound was determined by comparing its absorbance with that of the standard.
The ability of the compounds to scavenge the DPPH radical was calculated by the following formula:DPPH scavenging effect (%) = [(Xcontrol − Xcompound/Xcontrol) × 100], where Xcontrol is the absorbance of the control and Xcompound is the absorbance in the presence of TZD-TSCs preparations.

[7] = Ferric-reducing antioxidant power (FRAP) assay
Description: as §6
Each compound concentration (25, 75, 150, and 200 μg/mL, respectively) was dissolved in Milli-Q water and mixed with an equal volume of 0.2 M sodium phosphate buffer (pH 6.6) and 1% potassium ferricyanide. The mixture was incubated for 30 min at 37 °C. Thereafter, 10% trichloroacetic acid (w/v) was added and the mixture was centrifuged at 1000 g for 5 min. One mL of the upper layer was mixed with an equal volume of Milli-Q water and 0.1% ferric chloride. The absorbance was read at 700 nm using an EL800 Universal Microplate Reader (BioTek Instruments, Winooski, VT, USA). Ascorbic acid (0–150 μg/mL) was used as a positive control.

[8] = test system: CCD 841 CoTr cells; assay: Nitric oxide measurement (Griess), CCD 841 CoTr; type: cell-based, human; details: 200 μg/mL
Experimental: as §5

[9] = test system: CEM cells; design: method as in PMID 34006099; details: read-out: IC50, antiproliferative effects against CEM cells; cited from earlier work
[10] = test system: HDAC4; design: method as in PMID 34006099; details: cited from earlier work
[11] = test system: PPARγ; design: method as in PMID 34006099; details: cited from earlier work

SMILES	IC50 [1] [µM]	IC50 [2] [µM]	IC50 [3] [µM]	SI (selectivity index) [1]	SI (selectivity index) [2]	NO production, [NO2^−] ([4]; HT29, 25 μg/mL)	IC50 [5] [µM]	DPPH reduction value corresponding to concentration of Trolox ([6]; compound at 25 μg/mL) [µg/mL]	DPPH reduction value corresponding to concentration of Trolox ([6]; compound at 75 μg/mL) [µg/mL]	DPPH reduction value corresponding to concentration of Trolox ([6]; compound at 150 μg/mL) [µg/mL]	DPPH reduction value corresponding to concentration of Trolox ([6]; compound at 200 μg/mL) [µg/mL]	SI (selectivity index) [3]	FRAP reduction value corresponding to concentration of ascorbic acid ([7]; compound at 25 μg/mL) [µg/mL]	FRAP reduction value corresponding to concentration of ascorbic acid ([7]; compound at 75 μg/mL) [µg/mL]	FRAP reduction value corresponding to concentration of ascorbic acid ([7]; compound at 150 μg/mL) [µg/mL]	FRAP reduction value corresponding to concentration of ascorbic acid ([7]; compound at 200 μg/mL) [µg/mL]	NO production, [NO2^−] [8] [µM]	other results
COc1cc([C@@H]2c3cc4c(cc3[C@@H](O[C@@H]3O[C@@H]5CO[C@@H](C)O[C@H]5[C@H](O)[C@H]3O)[C@H]3COC(=O)[C@H]23)OCO4)cc(OC)c1O [Etoposide, reference compound]	161 ± 8.51	61.9 ± 2.97	> 160															
O=C(C=C1SC(=O)NC1=O)Oc1cccc(C=NNC(=S)Nc2ccccc2Cl)c1 [TZD–TSC 4]	117 ± 9.37	20.1 ± 1.19	42.4 ± 2.23	0.75	4.34	0.558 µM	87.3 ± 5.06	2.834	6.381	13.982	17.638	2.06	1.62	5.95	4.05	5.41	0.639	
O=C(C=C1SC(=O)NC1=O)Oc1ccc(C=NNC(=S)Nc2ccc(Cl)cc2Cl)cc1 [TZD–TSC 5]	119 ± 10.7	13.9 ± 0.59	93.6 ± 3.45	0.62	5.35	~ 0.272 μM	74.2 ± 2.3	0.768	2.689	9.964	15.177	0.79	2.70	2.43	4.59	9.19	0.272	NO production, [NO2^−] ([4]; HT29, 200 μg/mL): ~ 0.272 μM
O=C(COc1ccc2cc(/C=C3/SC(=O)NC3=O)ccc2c1)Nc1c(F)cc(F)cc1Br [compound 1]																		IC50 [9]: 9.6 µM; Activity toward HDAC4 [10]: low micromolar concentration; Activity toward PPARγ [11]: low micromolar concentration
